Data reported in patent US20130101680A1, “RADIOTHERAPY ENHANCER” (priority 2006, published 2013).

What was measured:
[1] = tested on: human lung cancer LC-11 strain; assay: X-ray irradiation enhancing effect of cisplatin, human lung cancer LC-11 strain in nude mice (Comparative Example 1); format: in vivo, human (in BALB/cA-nu mouse)
Experimental: (a) Preparation of test solution I: The cisplatin solution (0.5 mg/mL) available from Bristol-Myers Squibb Company was used as it was. 0.1 mL per mouse body weight 10 g was administered for the dose of cisplatin 5 mg/kg, and […] per mouse body weight 10 g was administered for the dose of 7.5 mg/kg.
(b) Radiation (X-ray) irradiation method: Local irradiation was performed on a human tumor strain transplanted into the right femoral region of the mouse using MBR-1505R Type 2 X-ray Irradiation System of Hitachi Medical Corporation under an irradiation condition (irradiation position) so that exposure per mouse should be 2 Gy or 5 Gy. To prevent systemic irradiation, mice were placed in a storage box made of lead so that only their right leg should be exposed to radiation.
(c) Test: The human lung cancer LC-11 strain subcutaneously transplanted into the back of a BALB/cA-nu mouse and grown beforehand were removed, cut into small fragments of about 2×2 mm^2 with scissors in physiological saline, and subcutaneously transplanted into the right femoral region of 5 to 6-week-old mice of the same strain with a transplantation needle. The mice were bred for at least 1 to 2 weeks and divided into the control group, the radiation alone group, the drug alone group, and the drug plus radiation group, so that the tumor volume and standard deviation (S.D.) in each group (n=6 per group) should be as uniform as possible. Then, drug administration and X-ray irradiation were initiated. For the drug treatment group, 0.1 mL per body weight 10 g of a cisplatin solution for the dose of 5 mg/kg or […] per body weight 10 g of this solution for the dose of 7.5 mg/kg was administered into the caudal vein on day 1. The radiation group was irradiated with 2 Gy of X-ray in the above-described manner on day 1, at the start of the test, and on day 8. For tumor-bearing mice in the control group (non-radiation/non-drug treatment group) and the radiation alone group, physiological saline was administered into the caudal vein on day 1.
By using the above-mentioned numerical formula 1, the tumor volume of each mouse in each group was obtained prior to the start of treatment experiment, on days 3, 5, 8 (1 week later) and 11 during the treatment period, and days 15 (2 weeks later), 18, 22 (3 weeks later), 25, and 29 (4 weeks later) after completion of treatment. A relative tumor volume (RTV) to the tumor volume at the start of the test was obtained for each mouse. Then, the mean tumor growth inhibition rate (IR; %) in each treatment group based on the control group was obtained by using the above-mentioned numerical formula 2 on day 15, at the end of the treatment period, and on day 29, at 4 weeks later, and shown in Table 3.

[2] = tested on: human pancreatic cancer strain PAN-4; assay: Tumor growth inhibition by S-1, 5-FU or gemcitabine and X-ray, human pancreatic cancer strain PAN-4 in nude mice (Test Example 3); format: in vivo, human (in BALB/cA-nu mouse); settings: for radiotherapy enhancing effect (combination with X-ray), in words: combination with X-ray 2 Gy, PAN-4
Experimental: (b) Preparation of test solution II: 5-fluorouracil (5-FU: Wako Pure Chemical Industries, Ltd.) was dissolved in physiological saline at a concentration of 1.5 mg/mL and sterilized by filtration with a 0.45-micron Millipore filter to obtain a drug solution of 15 mg/kg as 5-FU.
(c) Preparation of test solution 3: Gemcitabine (2′-difluoro-2′,3′-dideoxycytidine: Sigma) was dissolved in physiological saline at a concentration of 5 mg/mL and sterilized by filtration with a 0.45-micron Millipore filter to obtain a drug solution of 50 mg/kg as gemcitabine.
(d) Radiation (X-ray) irradiation method: Local irradiation was performed on a human tumor strain transplanted into the right femoral region of the mouse using MBR-1505R Type 2 X-ray Irradiation System of Hitachi Medical Corporation under an irradiation condition (irradiation position) so that exposure per mouse should be 2 Gy or 5 Gy. To prevent systemic irradiation, mice were placed in a storage box made of lead so that only their right leg should be exposed to radiation.
(e) Test: The human pancreatic cancer strain (PAN-4) subcutaneously transplanted into the back of a BALB/cA-nu mouse and grown beforehand was removed, cut into small fragments of about 2×2 mm^2 with scissors in physiological saline, and subcutaneously transplanted into the right femoral region of 5 or 6-week-old mice of the same strain with a transplantation needle. The mice were prebred for at least 1 to 2 weeks and divided into the control group, the radiation alone group, the drug alone group, and the drug plus radiation group, so that the tumor volume and standard deviation (S.D.) in each group (n=6 per group) should be as uniform as possible. Then, drug administration and X-ray irradiation were initiated. […] For 5-FU and gemcitabine, the drug treatment group was administered intravenously with 0.1 mL of the above-described 5-FU and gemcitabine drug solutions per body weight 10 g using a syringe for intravenous infusion on days 1 and 8. The radiation group was irradiated with 2 Gy or 5 Gy of X-ray in the above-described manner within about 1 hour after administration of each drug solution on day 1, at the start of the test, and on day 8. Tumor-bearing mice in the control group (non-radiation/non-drug treatment group) and the radiation alone group were orally administered with 0.5% HPMC solution alone in the same manner for 14 consecutive days.
By using the above-mentioned numerical formula 1, the tumor volume of each mouse in each group was obtained prior to the start of treatment experiment, on days 3, 5, 8 (1 week later) and 11 during the treatment period, and days 15 (2 weeks later), 18, 22 (3 weeks later), 25, and 29 (4 weeks later) after completion of treatment. For the PAN-4 strain, a relative tumor volume (RTV) to the tumor volume at the start was obtained. The mean tumor growth inhibition rate (%) in each treatment group based on the control group was obtained by using the above-mentioned numerical formula 2 on days 15, at the end of the treatment period, 22, and 29 and shown in Table 4.

[3] = BALB/cA-nu, mouse, in vivo, iv
[4] = No-observed adverse effect level / maximum nontoxic dose in mice; settings: as 5-FU; PAN-4 tumor-transplanted mouse, intravenous on days 1 and 8
[5] = CDDP 5.0 mg/kg i.v. day 1 + X-ray 2 Gy
[6] = CDDP 5.0 mg/kg i.v. day 1, alone
[7] = CDDP 7.5 mg/kg i.v. day 1 + X-ray 2 Gy
[8] = CDDP 7.5 mg/kg i.v. day 1, alone
[9] = Gemcitabine 50 mg/kg i.v. days 1 and 8 + X-ray 2 Gy
[10] = Gemcitabine 50 mg/kg i.v. days 1 and 8, alone
[11] = 5-FU 15 mg/kg i.v. days 1 and 8 + X-ray 2 Gy
[12] = 5-FU 15 mg/kg i.v. days 1 and 8, alone

Compound: N.N.[Cl][Pt][Cl] [cisplatin]
- IR (%) Day 15 [1, 5]: 53.8%
- IR (%) Day 29 [1, 5]: 46.8%
- IR (%) Day 15 [1, 6]: 39.9%
- IR (%) Day 29 [1, 6]: 45.6%
- IR (%) Day 15 [1, 7]: 54.6%
- IR (%) Day 29 [1, 7]: 66.8%
- IR (%) Day 15 [1, 8]: 55.8%
- IR (%) Day 29 [1, 8]: 60.2%
- radiotherapy enhancing effect (combination with X-ray), in words ([1]; cisplatin 5 mg/kg or 7.5 mg/kg with X-ray 2 Gy, LC-11): did not notably enhance antitumor effects compared with treatment with cisplatin alone

Compound: Nc1ccn([C@@H]2O[C@H](CO)[C@@H](O)C2(F)F)c(=O)n1 [Gemcitabine]
- Tumor growth inhibition rate (IR) (%) Day 15 [2, 9]: 40.0%
- Tumor growth inhibition rate (IR) (%) Day 15 ([2]; Gemcitabine 50 mg/kg i.v. days 1 and 8 + X-ray 2 Gy, listed as gemcitabine): 40%
- Tumor growth inhibition rate (IR) (%) Day 22 [2, 9]: 62.3%
- Tumor growth inhibition rate (IR) (%) Day 29 [2, 9]: 63.9%
- Tumor growth inhibition rate (IR) (%) Day 15 [2, 10]: 39.8%
- Tumor growth inhibition rate (IR) (%) Day 22 [2, 10]: 51.1%
- Tumor growth inhibition rate (IR) (%) Day 29 [2, 10]: 51.1%
- radiotherapy enhancing effect (combination with X-ray), in words [2]: did not show a strong effect of the combination use
- no-observed adverse effect level [3]: 50 mg/kg

Compound: O=c1[nH]cc(F)c(=O)[nH]1 [5-FU, 5-fluorouracil]
- Tumor growth inhibition rate (IR) (%) Day 15 [2, 11]: 15.8%
- Tumor growth inhibition rate (IR) (%) Day 22 [2, 11]: 27.5%
- Tumor growth inhibition rate (IR) (%) Day 29 [2, 11]: 36.9%
- Tumor growth inhibition rate (IR) (%) Day 15 [2, 12]: 12.4%
- Tumor growth inhibition rate (IR) (%) Day 22 [2, 12]: 16.8%
- Tumor growth inhibition rate (IR) (%) Day 29 [2, 12]: 29.2%
- radiotherapy enhancing effect (combination with X-ray), in words [2]: did not show marked effect of the combination use
- maximum nontoxic dose [4]: 15 mg/kg
